From ChEMBL document CHEMBL3217664, “Synthesis and biological evaluation of 4-chlorocolchicine derivatives as potent anticancer agents with broad effective dosage ranges” (Medchemcomm, 2012)

Assays:
[1] = system: HCT-116; assay: Antitumor activity against human HCT116 cells xenografted in BALB/c mouse assessed as tumor growth inhibition at 5 mg/kg/day, iv administered on day 1, 5 and 9 relative to control; format: functional; conditions: HCT-116, 24 h, read-out: TGI
[2] = system: Mus musculus; assay: Toxicity in BALB/c mouse assessed as mortality at 5 mg/kg/day, iv administered on day 1, 5 and 9; format: organism-based; set-up: route intravenous; conditions: in vivo
[3] = system: Liver; assay: Metabolic stability in BALB/c mouse liver microsomes at 1 umol/l by LC-MS/MS analysis; format: ADME; conditions: 1 µM
[4] = system: HCT-116; assay: Cytotoxicity against human HCT116 cells after 96 hrs by microplate reader analysis; format: functional, cell-based; conditions: HCT-116, 96 h
[5] = system: Mus musculus; assay: Toxicity in BALB/c mouse assessed as mortality at 2.5 mg/kg/day, iv administered on day 1, 5 and 9; format: organism-based; set-up: route intravenous; conditions: in vivo
[6] = system: HCT-116; assay: Antitumor activity against human HCT116 cells xenografted in BALB/c mouse assessed as tumor growth inhibition at 2.5 mg/kg/day, iv administered on day 1, 5 and 9 relative to control; format: functional; conditions: HCT-116, 24 h, read-out: TGI
[7] = system: HT-29; assay: Cytotoxicity against human HT-29 cells after 96 hrs by microplate reader analysis; format: functional, cell-based; conditions: HT-29, 96 h
[8] = system: A549; assay: Cytotoxicity against human A549 cells after 96 hrs by microplate reader analysis; format: functional, cell-based; conditions: A549, 96 h
[9] = system: Mus musculus; assay: Toxicity in BALB/c mouse assessed as mortality at 20 mg/kg/day, iv administered on day 1, 5 and 9; format: organism-based; set-up: route intravenous; conditions: in vivo
[10] = system: Mus musculus; assay: Toxicity in BALB/c mouse assessed as mortality at 40 mg/kg/day, iv administered on day 1, 5 and 9; format: organism-based; set-up: route intravenous; conditions: in vivo
[11] = system: HCT-116; assay: Antitumor activity against human HCT116 cells xenografted in BALB/c mouse assessed as tumor growth inhibition at 20 mg/kg/day, iv administered on day 1, 5 and 9 relative to control; format: functional; conditions: HCT-116, 24 h, read-out: TGI
[12] = system: HCT-116; assay: Antitumor activity against human HCT116 cells xenografted in BALB/c mouse assessed as tumor growth inhibition at 40 mg/kg/day, iv administered on day 1, 5 and 9 relative to control; format: functional; conditions: HCT-116, 24 h, read-out: TGI
[13] = system: HCT-116; assay: Antitumor activity against human HCT116 cells xenografted in BALB/c mouse assessed as tumor growth inhibition at 50 mg/kg/day, iv administered on day 1, 5 and 9 relative to control; format: functional; conditions: HCT-116, 24 h, read-out: TGI
[14] = system: HCT-116; assay: Antitumor activity against human HCT116 cells xenografted in BALB/c mouse assessed as tumor growth inhibition at 100 mg/kg/day, iv administered on day 1, 5 and 9 relative to control; format: functional; conditions: HCT-116, 24 h, read-out: TGI
[15] = system: Mus musculus; assay: Toxicity in BALB/c mouse assessed as mortality at 100 mg/kg/day, iv administered on day 1, 5 and 9; format: organism-based; set-up: route intravenous; conditions: in vivo
[16] = system: Mus musculus; assay: Toxicity in BALB/c mouse assessed as mortality at 50 mg/kg/day, iv administered on day 1, 5 and 9; format: organism-based; set-up: route intravenous; conditions: in vivo

Row | Structure (SMILES) | inhibition in vivo at 5 mg/kg/day [1] [%] | Activity [2] | Stability [3] [µL/min/mg] | IC50 [4] [nM] | Activity [5] | inhibition in vivo at 2.5 mg/kg/day [6] [%] | IC50 [7] [nM] | IC50 [8] [nM] | Activity [9] | Activity [10] | inhibition in vivo at 20 mg/kg/day [11] [%] | inhibition in vivo at 40 mg/kg/day [12] [%] | inhibition in vivo at 50 mg/kg/day [13] [%] | inhibition in vivo at 100 mg/kg/day [14] [%] | Activity [15] | Activity [16]
1 | COc1c(Cl)c2c(c(OC)c1OC)-c1ccc(OC)c(=O)cc1[C@@H](NC(=O)c1cccc(N(C)C)c1)CC2 | 25.3 | Non-toxic | 122 | 1.6 | Non-toxic | 31.4 | 1.4 | 6.4 |  |  |  |  |  |  |  | 
2 | COc1c(Cl)c2c(c(OC)c1OC)-c1ccc(OC)c(=O)cc1[C@@H](NC(=O)CO)CC2 |  |  | 1 | 8.2 |  |  | 8 | 16.3 | Non-toxic | Non-toxic | 43.6 | 66.7 |  |  |  | 
3 | COc1c(Cl)c2c(c(OC)c1OC)-c1ccc(OC)c(=O)cc1[C@@H](NC(=O)C(C)(C)O)CC2 |  |  | 5 | 8.1 |  |  | 7.8 | 19.4 |  |  |  |  | 58.5 | 67.3 | Non-toxic | Non-toxic
